The results in this text go back to patent US6492365B1, “Microsomal triglyceride transfer protein” (Bristol-Myers Squibb Company, priority 1992, dated 2002).

For the test, the system named is apoB secretion from HepG2 cells. Kind of test: ApoB secretion from HepG2 cells (ELISA of culture media). The format is cell-based, human. The method, then:
HepG2 cells were treated with compound A at the indicated doses for 16 hours. The concentration in the cell culture media of apoB, apoAI and HSA after the incubation period was measured with the appropriate ELISA assay and normalized to total cell protein. The data shown are expressed as a percentage of the control (DMSO only).
HepG2 cells were treated with compound B at the indicated doses for 16 hours. The concentration in the cell culture media of apoB, apoAI and HSA after the incubation period was measured with the appropriate ELISA assay and normalized to total cell protein. The data shown are expressed as a percentage of the control (DMSO only).
The human hepatoblastoma cell line, HepG2, was obtained from the American Type Culture Collection (Rockville, Md.; ATCC accession no. 8065). […]
Experiments to measure the effects of compounds A and B on protein secretion were carried out in 48-well plates. […] Before commencement of drug treatment, culture medium was removed, the cells washed once with PBS and 1 mL of fresh medium was added quantitatively. […] The cells were homogenized by trituration with a 1 mL micropipettor, and protein was measured using the Coomassie reagent (Pierce Chemical Co, Rockford, Ill.) as described by the manufacturer. […]

Structures can show the parent of a compound that is named as a salt.

As a reminder, the IC50 is the concentration at which inhibition is half-maximal. For `O=C1c2ccccc2CN1C1CCN(CCC(c2ccccc2)c2ccccc2)CC1` [compound A, 2-[1-(3,3-diphenylpropyl)-4-piperdinyl]-2,3-dihydro-3-oxo-1H-isoindole hydrochloride], the IC50 (Homo sapiens, 16-hour incubation, 0.156 to 20 μM, read-out: IC50 for inhibition of apoB secretion) was determined as 5 µM.

Regarding `COc1ccccc1N1CCN(CC2CC(=O)c3ccc(F)cc3C2)CC1` (centres unmarked) [compound B, 1-[3-(6-fluoro-1-tetralanyl)methyl]-4-O-methoxyphenyl piperazine], under “result in words”, the “secretion of lipoproteins that contain apoB” value was “inhibited”.
